Experimental findings from PubChem BioAssay AID618 (Sanford-Burnham Center for Chemical Genomics, 2007) are described below.

Usually EC50 stands for the midpoint of the concentration-response curve.

Activity calls are given as the source filed them. How the calls were made is not given here. Where only a bound is given, the exact number is not on record here.

The test system of the test is MT1-MMP promoter luciferase reporter cells, luminescence. The test is described as follows: inhibitors of MT1-MMP promoter transcription, cell-based, luciferase reporter, luminescence (AID 618).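 Further: actives suppress MT1-MMP promoter-driven transcription so potencies describe inhibitors.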
For `COc1ccc(S(=O)(=O)N2CCN(C(=O)CCC3CCCC3)CC2)cc1`, the EC50 was > 50 µM (inactive).

Turning to `c1ccc(-c2nc(-c3ccccn3)no2)cc1`, the EC50 is 8.19 µM.

For the molecule `Nc1cccc2nc3ccccc3cc12`, the EC50 is 21.9 µM.

As for `Nc1ccc(-c2nc3ccc(N)cc3o2)cc1`, the EC50 is 14 µM.

As for `Cc1cc(N)n2nc(-c3ccccc3)cc2n1`, the EC50 is 34.4 µM.

Consider `CCOc1ccc(-c2cc(CCCC(=O)NCCCOC)no2)cc1`, for which the EC50 was 8.32 µM.

As to `O=S1(=O)Nc2c(ccc3cccnc23)-c2ccccc21`, the EC50 is 24.6 µM.

With `CCN1C=CC(=C2C(=O)c3ccccc3C2=O)C=C1`, the 50% effective concentration (EC50) was 0.2 µM.

In the case of `O=C(N/N=C/c1ccc([N+](=O)[O-])s1)c1ccccc1Br`, the concentration giving a half-maximal response (EC50) was 2.8 µM.

`Nc1ccc(-c2nc3c(Cl)cc(N)cc3[nH]2)cc1`: the EC50 was 10.7 µM.

Turning to `CC(C)(C)c1ccc(-c2noc(CCC(N)=O)n2)cc1`, the EC50 was 0.13 µM.

As for `CCOC(=O)c1sc2nc3c(cc2c1N)COC(C(C)C)C3` (stereo not drawn), the EC50 is 1.62 µM.

Consider `Cc1ccc(-c2nc3n(n2)Cc2ccccc2-3)cc1`, for which the EC50 is 1.49 µM.

Regarding `Cc1ccc(-c2nc3cc(N)ccc3o2)cc1`, the EC50 is 2.91 µM.

As for `O=C(O)c1cccc(C(=O)Nc2cccc(NC(=O)C3CCCO3)c2)c1` (stereo not drawn), the EC50 is 10.1 µM.

For the molecule `O=C(CSc1nnc(-c2ccccc2)o1)Nc1ccccc1F`, the EC50 is 0.82 µM.

Turning to `N#Cc1cc2c(nc1SCC(=O)Nc1nccs1)CCCCC2`, the EC50 is 7.77 µM.

In the case of `COC(=O)CCn1nnc(-c2ccc(C(C)C)cc2)n1`, the EC50 is 0.11 µM.

Take `CC(C)c1ccc(-c2nnn(CCC(=O)O)n2)cc1`: the concentration giving a half-maximal response (EC50) is 1.04 µM.

On to `Nc1nc(Nc2ccc(Cl)cc2)nc2ccccc12`, for which the EC50 is 2.13 µM.

As to `Cc1cc(-c2csc(N)n2)c(C)n1CCc1ccccc1`, the EC50 was 13.2 µM.

As for `c1ccc(-c2nc3cc4ccccc4cc3[nH]2)nc1`, the EC50 was 0.8 µM.

`Cc1ccc(-c2csc3ncnc(Sc4nnc(CN5CCCCCC5=O)o4)c23)cc1`: the EC50 was 15 µM.

As for `CC(C)Nc1ncnc2c1cnn2-c1ccc(Cl)cc1`, the EC50 is 3.85 µM.

Take `Cc1cnc(NC(=O)C2COc3ccccc3O2)s1` (stereo not drawn): the EC50 is 0.61 µM.

Take `COc1ccc2nc(-c3ccc(N)cc3)[nH]c2c1`: the EC50 is > 50 µM (inactive).

Take `CC(C)c1ccc2oc(-c3ccc(N)cc3)nc2c1`: the EC50 was 1.66 µM.

As to `CN1CCN(CC(=O)N2CCn3c4c(c5cc(C6CCCCC6)ccc53)CCCC42)CC1` (stereo not drawn), the EC50 is 12 µM.

Take `O=C(Nc1nc2ccccc2[nH]1)c1ccccc1`: the EC50 is 3.53 µM.

For `N#Cc1c(NC(=O)CSc2ncn[nH]2)sc2c1CCCC2`, the EC50 is 0.73 µM.

With `Cc1ccsc1/C=C1\CCc2ccccc2C1=O`, the EC50 is 3.09 µM.

For the molecule `COc1ccc(O)c(C(=O)CC(=O)c2ccc(F)cc2)c1`, the EC50 was 0.57 µM.

Take `Cc1ccc2nc(NC(=O)c3ccco3)sc2c1`: the EC50 was 1 µM.

Regarding `CC(C)(C)c1ccc(-c2nc(-c3ccncc3)no2)cc1`, the concentration giving a half-maximal response (EC50) is 6.13 µM.

For `COc1ccc(C(=O)/C=C/Nc2ccccn2)cc1`, the EC50 is 0.19 µM.

With `CCc1ccc2oc(-c3cccc(N)c3)nc2c1`, the EC50 is 3.93 µM.

On to `CCOC(=O)/C(=C\c1ccccc1)C(=O)c1cc(C(C)=O)c(Nc2ccccc2)s1`, for which the EC50 was 14.4 µM.

With `O=C(Nc1nccs1)c1cc2c(s1)CCCCC2`, the EC50 was 0.55 µM.

With `O=C(c1cc(-c2cccc(O)c2)on1)N1CCCCC1`, the 50% effective concentration (EC50) was 6.35 µM.

As to `c1ccc(-c2cnc(-c3ccccc3)nc2)cc1`, the EC50 was 3.74 µM.

With `CCN(CC)c1ccc2cc(NC(=O)CCC(=O)O)c(=O)oc2c1`, the EC50 was 0.67 µM.

Turning to `O=C(/C=C\Nc1ccccn1)c1ccccc1`, the EC50 was 2.01 µM.

Take `O=C(CSc1nnc(-c2csc3c2CCCC3)o1)Nc1ccccc1`: the EC50 is 4.27 µM.

With `CCOc1ccc(NC(=O)c2cnsn2)cc1`, the EC50 is 8.78 µM.

With `COc1ccc(NC(=O)/C(Cl)=C(/Cl)S(=O)(=O)Cc2ccc(C)cc2)cn1`, the EC50 was 14.5 µM.

For `C=CCn1c(C)cc(C(=O)CSc2nc3ccccc3[nH]2)c1C`, the concentration giving a half-maximal response (EC50) is 2.64 µM.

Regarding `Cc1csc(NC(=O)c2cc3c(s2)CCCC3)n1`, the EC50 was 1.26 µM.

For `CC1CCc2nc(NC(=O)C3CCCO3)sc2C1` (stereo not drawn), the EC50 is 12.4 µM.

Consider `COc1cc(SC)ccc1C(=O)Nc1ccc2c(c1)OCCO2`, for which the EC50 is 13.2 µM.

As to `O=C1c2ccccc2C(=O)C1c1nccc2ccccc12`, the 50% effective concentration (EC50) was 1.83 µM.

Turning to `Oc1c(CN2CCCCC2)cc(COCc2ccccc2)c2cccnc12`, the EC50 was 6.94 µM.

For the molecule `Cc1nc2cc(-c3cccc(F)c3)nn2c(C)c1CCC(=O)NC(C)CCc1ccco1` (stereo not drawn), the EC50 was 1.12 µM.

With `Cc1cc(C)c2c(N)c(C(=O)Nc3ncc(C)s3)sc2n1`, the EC50 is 0.21 µM.

For `COc1ccc(-c2nsc3c(N4CCCCC4)ncnc23)cc1`, the EC50 is 0.27 µM.

With `Cc1nc(Nc2nc3ccccc3o2)nc2c1CCC2`, the EC50 is 3.09 µM.

Turning to `CCOc1ccc(OCc2ccc(C(=O)OCc3ccccn3)o2)cc1`, the EC50 is 3.05 µM.

In the case of `CCc1ccc(NC(=O)c2noc3c2CCC3)cc1`, the EC50 was 4 µM.

As for `O=C(NC1=NCCS1)c1cc2ccccc2o1`, the EC50 is 6.52 µM.

Turning to `O=C(c1cccc(COc2ccc(Cl)cc2Cl)c1)N1CCN(c2ccccn2)CC1`, the concentration for a half-maximal effect (EC50) is 12.6 µM.

In the case of `CC(=O)c1sc(NC(=O)C2COc3ccccc3O2)nc1C` (stereo not drawn), the EC50 is 5.39 µM.

For the molecule `Cn1ccnc1SCc1cn2cc(Br)ccc2n1`, the EC50 was 15 µM.

Regarding `CC(C)C(=O)Nc1ccc(-c2nc3cccnc3o2)cc1`, the EC50 is 6.05 µM.

As for `Cc1ccc(-n2nc3ccc(N)cc3n2)cc1`, the EC50 is 13.6 µM.

In the case of `Clc1ccccc1OCc1nc(-c2ccccn2)no1`, the EC50 is 6.65 µM.

Consider `Clc1c(CSc2nc3ccccc3o2)nc2ccccn12`, for which the EC50 was 12.1 µM.

Regarding `COCCn1c(C)cc(C(=O)CSc2ccc(NC(C)=O)cc2)c1C`, the EC50 is 8.54 µM.

As to `O=C(Nc1ccc2c(c1)OCCO2)c1cncc(Br)c1`, the EC50 is 7.14 µM.

On to `Cc1cccc(-n2ncc3c(N4CCCC4)ncnc32)c1`, for which the EC50 is 7.6 µM.

As to `Cc1ccc(C(=O)N/N=C/c2ccc([N+](=O)[O-])s2)cc1`, the EC50 is 0.3 µM.

Take `Cc1c(NC(=O)c2coc(=O)c(Br)c2)c(=O)n(-c2ccccc2)n1C`: the EC50 was 13.1 µM.

Turning to `CCc1nnc(NC(=O)c2ccc(OC)cc2OC)s1`, the EC50 is 6.08 µM.

On to `COc1ccc(C(=O)Nc2ccc3c(c2)OCCO3)cc1`, for which the half-maximal effective concentration (EC50) was 2.98 µM.

As for `Cc1ccccc1NC(=O)c1cnc2ccccn2c1=O`, the 50% effective concentration (EC50) was 2.13 µM.

Take `O=c1c2ccccc2nnn1CSc1nnc2sc3ccccc3n12`: the EC50 is 8.02 µM.

For `Cc1cc(N2CCOCC2)n2ncc(-c3ccccc3)c2n1`, the EC50 is 3.57 µM.

In the case of `O=C(CCCOc1ccccc1)N1CCCCC1`, the EC50 is 6.96 µM.

For `COc1cccc(Cn2c(NCc3cccnc3)nc3c2c(=O)n(C)c(=O)n3C)c1`, the EC50 is 0.25 µM.

`O=C(NC1=NC2CCCCC2N1)c1ccccc1` (stereo not drawn): the EC50 was 12.9 µM.

For `Nc1ccc2nc(-c3ccccc3)sc2c1`, the EC50 is 1.91 µM.

Take `Fc1ccc(-c2nnc(-c3ccc(Cl)cc3Cl)o2)cc1`: the EC50 is 8.19 µM.

In the case of `CC(C)C(=O)NC(c1ccco1)c1ccc2cccnc2c1O` (stereo not drawn), the EC50 is 27.6 µM.

Turning to `CC1CCN(c2nc3ccc(C(=O)O)cc3s2)CC1`, the EC50 is 0.35 µM.

In the case of `CC(=O)N(/N=C1\Sc2ccccc2C1=O)c1ccc(C)cc1C`, the EC50 was 1.97 µM.

Consider `COc1ccc(C(=O)/C=C/Nc2cccc(O)c2)cc1`, for which the EC50 was 1.23 µM.

For `CCN(CC)c1ccc2cc(-c3nc4ccccc4[nH]3)c(=O)oc2c1`, the concentration giving a half-maximal response (EC50) is 1.06 µM.

In the case of `Cc1ccc(OCc2nc(-c3ccccn3)no2)c(Br)c1`, the EC50 is 2.17 µM.

Take `N#C/C(=C\c1ccc(N2CCOCC2)o1)c1nc2ccccc2[nH]1`: the EC50 is 4.32 µM.

Turning to `COc1ccc(-c2cc3nnc(-c4ccccc4)nc3s2)cc1`, the EC50 is 0.86 µM.

Regarding `Cc1ccc(-c2nc(-c3ccccn3)no2)cc1`, the EC50 is less than 0.098 µM.

As for `Nc1ccc(C(=O)Nc2nc3ccccc3s2)cc1`, the EC50 is 3.47 µM.

Consider `O=S(=O)(c1ccc(Cl)cc1)c1snnc1-c1ccccc1`, for which the EC50 is 13.2 µM.

`COc1ccc(-c2cn3nc4c(nc3n2)CCCC4)cc1`: the EC50 was 0.59 µM.

As for `Cc1ccc(O)c(/C=N/NC(=O)C2=NNC(c3ccccc3)(c3ccccc3)C2)c1`, the 50% effective concentration (EC50) was 19 µM.

Take `Cc1c(C(=O)NC2=NCCS2)oc2ccccc12`: the EC50 is 9.29 µM.

With `CCOc1ccc2nc(NC(=O)c3ccoc3C)sc2c1`, the EC50 is 0.97 µM.

As for `COc1cccc(-c2nc(-c3ccccn3)no2)c1`, the EC50 is 0.66 µM.

Consider `CCOc1ccc(C(=O)NCCc2ccccc2)cc1`, for which the EC50 was 2.56 µM.

In the case of `c1ccc(-c2cn3nc4c(nc3n2)CCCC4)cc1`, the concentration for a half-maximal effect (EC50) is 0.54 µM.

`CN1/C(=C\C=C\C2=[N+](C)c3ccc4ccccc4c3C2(C)C)C(C)(C)c2ccccc21`: the EC50 is 4.71 µM.

For `COc1ccc(N=CC2=C(O)c3ccccc3C2=O)c(OC)c1`, the EC50 is 0.79 µM.

In the case of `Cn1c(-c2ccccc2)cnc1SCC(=O)N1CCCCC1`, the EC50 is 2.88 µM.

For the molecule `Cc1ccccc1Cn1nnc(-c2cccc(C(=O)O)c2)n1`, the EC50 is 18 µM.

Take `CC1=NC(=O)C(N=Nc2cccc(C(=O)O)c2)N1c1ccccc1` (stereo not drawn): the EC50 was 1.64 µM.

With `COC(=O)c1ccc(-c2nc3cc(N)ccc3o2)cc1`, the EC50 is 3.09 µM.

As for `CCCc1ccc(-c2ccc(F)c(N)c2)nc1`, the EC50 was 0.66 µM.

With `CCCCCCOc1ccc(CN2CCN(CCO)CC2)cc1`, the EC50 is 12.1 µM.

Consider `COC(=O)c1nn(-c2ccc(-c3ccccc3)cc2)cc1O`, for which the EC50 is 1.48 µM.

For the molecule `O=C(NCc1cccs1)c1nc2c(nnn2Cc2ccccc2Cl)c(=O)[nH]1`, the EC50 was > 50 µM (inactive).

Consider `COc1nc(C)ccc1-c1noc(-c2ccco2)n1`, for which the EC50 was 10.9 µM.

Turning to `O=C(Nc1ccccn1)c1cc2ccccc2o1`, the EC50 is > 50 µM (inactive).

For the molecule `Cc1ccc2nc(-c3cccc(N)c3)oc2c1`, the EC50 was 3.71 µM.

Regarding `C=CCNc1nc(-c2ccccn2)nnc1-c1ccccc1`, the EC50 was 15.2 µM.

As for `O=C(O)CCSc1nc2ccccc2s1`, the EC50 is 15.4 µM.
